One assay concerns the target human TrkA (Homo sapiens (Human), UniProt P04629). The assay is described as follows: Human TrkA inhibition assay (Test Example 2). It counts as biochemical. To be noted: Table 155, human TrkA inhibition; read-out: IC50. A digest of the protocol:
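Mobility-shift readout of phosphorylated versus unphosphorylated fluorescent peptide gave conversion ratio, normalized to DMSO and no-enzyme wells; IC50 by logistic fit of 10- or 15-point 3-fold dilutions. Conditions: 1 nmol/L enzyme, 15 min compound preincubation, then 500 μmol/L ATP plus 1.5 μmol/L peptide, 120 min, 37 °C.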
human TrkA, sequence (P04629 440-796): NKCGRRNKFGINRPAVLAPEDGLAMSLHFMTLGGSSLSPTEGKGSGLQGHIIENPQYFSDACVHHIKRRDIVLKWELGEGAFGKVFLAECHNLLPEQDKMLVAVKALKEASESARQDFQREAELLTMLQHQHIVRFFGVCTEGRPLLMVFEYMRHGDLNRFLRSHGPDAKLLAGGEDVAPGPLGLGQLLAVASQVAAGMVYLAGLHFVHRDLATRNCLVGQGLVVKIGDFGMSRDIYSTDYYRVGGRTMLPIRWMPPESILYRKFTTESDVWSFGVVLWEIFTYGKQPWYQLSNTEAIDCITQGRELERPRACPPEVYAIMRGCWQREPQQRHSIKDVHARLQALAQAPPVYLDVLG
For the compound `COCCN1C[C@@H](NC(=O)Nc2c(C)c(-c3cnc(OC(C)C)nc3)nn2-c2ccccc2)[C@H](c2ccnc(F)c2)O1` (racemic) [Compound I-477], the IC50 is less than 100 nM.

Take `COCCN1C[C@@H](NC(=O)Nc2c(C)c(-c3cnc(OC(CF)CF)nc3)nn2-c2ccccc2)[C@H](c2ccnc(F)c2)O1` (racemic) [Compound I-478]: the IC50 is less than 100 nM. On the same count and under the same terms, the figure for `COCCN1C[C@@H](NC(=O)Nc2c(C)c(-c3cnc(N4CC(C)(O)C4)nc3)nn2-c2ccccc2)[C@H](c2ccnc(F)c2)O1` (racemic) [Compound I-479] is less than 100 nM; for `COCCN1C[C@@H](NC(=O)Nc2c(C)c(-c3cnc(N4CC(F)C4)nc3)nn2-c2ccccc2)[C@H](c2ccnc(F)c2)O1` (racemic) [Compound I-480] it is less than 100 nM. For the compound `COCCN1C[C@@H](NC(=O)Nc2c(C)c(-c3cnc(N4CC(F)(F)C4)nc3)nn2-c2ccccc2)[C@H](c2ccnc(F)c2)O1` (racemic) [Compound I-481], the IC50 is less than 100 nM. For `COCCN1C[C@@H](NC(=O)Nc2c(C)c(-c3cnc(N4CCC5(COC5)C4)nc3)nn2-c2ccccc2)[C@H](c2ccnc(F)c2)O1` (racemic) [Compound I-482], the IC50 is less than 100 nM. For `COCCN1C[C@@H](NC(=O)Nc2c(C)c(-c3cnc(N4CC5(CCOC5)C4)nc3)nn2-c2ccccc2)[C@H](c2ccnc(F)c2)O1` (racemic) [Compound I-483], the IC50 was less than 100 nM. In the case of `COCCN1C[C@@H](NC(=O)Nc2c(C)c(-c3cnc(N4CCC5(CC4)COC5)nc3)nn2-c2ccccc2)[C@H](c2ccnc(F)c2)O1` (racemic) [Compound I-484], the IC50 is less than 100 nM. Still for that read-out and setting: the figure for `COCCN1C[C@@H](NC(=O)Nc2c(C)c(-c3cnc(N4CC5(CCC5)C4)nc3)nn2-c2ccccc2)[C@H](c2ccnc(F)c2)O1` (racemic) [Compound I-485] is less than 100 nM; for `COCCN1C[C@@H](NC(=O)Nc2c(C)c(-c3cnc(N4C[C@H]5CC[C@@H](C4)O5)nc3)nn2-c2ccccc2)[C@H](c2ccnc(F)c2)O1` (racemic) [Compound I-486] it is less than 100 nM; for `COCCN1C[C@@H](NC(=O)Nc2c(C)c(-c3cnc(N4C[C@H]5C[C@@H](C4)O5)nc3)nn2-c2ccccc2)[C@H](c2ccnc(F)c2)O1` (racemic) [Compound I-487] it is less than 100 nM.

As for `COCCN1C[C@@H](NC(=O)Nc2c(C)c(-c3cnc(N4CCN(C)C(=O)C4)nc3)nn2-c2ccccc2)[C@H](c2ccnc(F)c2)O1` (racemic) [Compound I-488], the IC50 was less than 100 nM. On to `COCCN1C[C@@H](NC(=O)Nc2c(C)c(-c3cnc(N4CC(OC)C4)nc3)nn2-c2ccccc2)[C@H](c2ccnc(F)c2)O1` (racemic) [Compound I-489], for which the IC50 was less than 100 nM. Regarding `COCCN1C[C@@H](NC(=O)Nc2c(C)c(-c3cnc4c(c3)c(N3CCN(C)CC3)nn4C)nn2-c2ccccc2)[C@H](c2ccnc(F)c2)O1` (racemic) [Compound I-490], the 50% inhibitory concentration (IC50) was less than 100 nM. Same read-out and setting: the figure for `COCCN1C[C@@H](NC(=O)Nc2c(C)c(-c3cnc4c(c3)c(N3CCCC3)nn4C)nn2-c2ccccc2)[C@H](c2ccnc(F)c2)O1` (racemic) [Compound I-491] is less than 100 nM; for `COCCN1C[C@@H](NC(=O)Nc2c(C)c(-c3ccn(C)c(=O)c3)nn2-c2ccccc2)[C@H](c2ccnc(F)c2)O1` (racemic) [Compound I-495] it is less than 100 nM. Same read-out and setting: in the case of `COCCN1C[C@@H](NC(=O)Nc2c(C)c(-c3ccc(=O)n(C)c3)nn2-c2ccccc2)[C@H](c2ccnc(F)c2)O1` (racemic) [Compound I-496] it was less than 100 nM; in that of `COCCN1C[C@@H](NC(=O)Nc2c(C)c(OCc3cc(OC)ccn3)nn2-c2ccccc2)[C@H](c2ccnc(F)c2)O1` (racemic) [Compound I-501], less than 100 nM. Consider `COCCN1C[C@@H](NC(=O)Nc2c(C)c(OCC3CC3)nn2-c2ccccc2)[C@H](c2ccnc(F)c2)O1` (racemic) [Compound I-502], for which the IC50 is less than 100 nM. In the case of `COCCN1C[C@@H](NC(=O)Nc2c(C)c(OCC3COC3)nn2-c2ccccc2)[C@H](c2ccnc(F)c2)O1` (racemic) [Compound I-503], the IC50 is less than 100 nM. Take `COCCN1C[C@@H](NC(=O)Nc2c(C)c(-c3cnc(N4CCNOCC4)nc3)nn2-c2ccccc2)[C@H](c2ccnc(F)c2)O1` (racemic) [Compound I-507]: the IC50 was less than 100 nM. `COCCOc1ncc(-c2nn(-c3ccccc3)c(NC(=O)N[C@@H]3CN(CCOC)O[C@H]3c3ccnc(F)c3)c2C)cn1` (racemic) [Compound I-511]: the IC50 is less than 100 nM.

As to `COCCN1C[C@@H](NC(=O)Nc2c(C)c(-c3cnc(C4CCOCC4)nc3)nn2-c2ccccc2)[C@H](c2ccnc(F)c2)O1` (racemic) [Compound I-513], the concentration for half-maximal inhibition (IC50) was less than 100 nM.

Still in this assay, the particulars now being: Table 156, human TrkA inhibition; read-out: IC50.
As to `COCCN1C[C@@H](NC(=O)Nc2c(C)c(-c3cnnc(OC)c3)nn2-c2ccccc2)[C@H](c2ccnc(F)c2)O1` (racemic) [Compound I-515], the IC50 is less than 100 nM.

In the case of `COCCN1C[C@@H](NC(=O)Nc2c(C)c(-c3cnc4occc4c3)nn2-c2ccccc2)[C@H](c2ccnc(F)c2)O1` (racemic) [Compound I-517], the IC50 is less than 100 nM. Consider `COCCN1C[C@@H](NC(=O)Nc2c(C)c(C)nn2-c2ccccc2)[C@H](c2ccnc(F)c2)O1` (racemic) [Compound I-522], for which the IC50 is less than 100 nM. In the case of `CCOc1nn(-c2ccccc2)c(NC(=O)N[C@@H]2CN(CCOC)O[C@H]2c2ccnc(F)c2)c1C` (racemic) [Compound I-523], the IC50 is less than 100 nM.

`COCCN1C[C@@H](NC(=O)Nc2c(C)c(-c3cnc(NCC(F)(F)F)nc3)nn2-c2ccccc2)[C@H](c2ccnc(F)c2)O1` (racemic) [Compound I-524]: the IC50 is less than 100 nM. Take `COc1ncc(-c2nn(-c3ccccc3)c(NC(=O)N[C@@H]3CN(CCF)O[C@H]3c3ccc(F)c(F)c3)c2C)cn1` (racemic) [Compound I-525]: the IC50 is less than 100 nM. Same read-out and setting: the figure for `COc1ncc(-c2nn(-c3ccccc3)c(NC(=O)N[C@@H]3CN(C(C)C)O[C@H]3c3ccc(F)c(F)c3)c2C)cn1` (racemic) [Compound I-527] is less than 100 nM. For the compound `COCCN1C[C@@H](NC(=O)Nc2c(C)c(-c3cnc(CN(C)C)nc3)nn2-c2ccccc2)[C@H](c2ccc(F)c(F)c2)O1` (racemic) [Compound I-528], the IC50 was less than 100 nM. In the case of `COCCN1C[C@@H](NC(=O)Nc2c(C)c(-c3ccnc(C)c3)nn2-c2ccccc2)[C@H](c2ccnc(F)c2)O1` (racemic) [Compound I-529], the IC50 was less than 100 nM. Still for that read-out and setting: in the case of `COCCN1C[C@@H](NC(=O)Nc2c(C)c(-c3cnc4c(c3)CCO4)nn2-c2ccccc2)[C@H](c2ccnc(F)c2)O1` (racemic) [Compound I-530] it was less than 100 nM. For `COCCN1C[C@@H](NC(=O)Nc2c(C)c(-c3cnc(N4CCC(N(C)C)CC4)nc3)nn2-c2ccccc2)[C@H](c2ccnc(F)c2)O1` (racemic) [Compound I-532], the IC50 was less than 100 nM. Turning to `COCCN1C[C@@H](NC(=O)Nc2c(C)c(C(F)(F)F)nn2-c2ccccc2)[C@H](c2ccnc(F)c2)O1` (racemic) [Compound I-534], the IC50 is less than 100 nM.

Staying with this assay, now noted: human TrkA 1 nmol/L, ATP 500 μmol/L, 120 min at 37° C.; read-out: IC50 values (TrkA phosphorylation inhibition).
As for `COc1ncc(-c2nn(-c3ccccc3)c(NC(=O)N[C@@H]3CN(CC(F)F)O[C@H]3c3ccc(F)c(F)c3)c2C)cn1` (racemic) [Compound I-526], the IC50 came to 22 nM.

These data come from patent publication US10640495B2, “Heterocycle derivatives having TrkA inhibitory activity” (Shionogi & Co., Ltd., priority 2015, dated 2020).
